Source: patent publication US10696693B2, “Fused imidazole derivatives as TGF-beta inhibitors” (Rigel Pharmaceuticals, Inc., priority 2014, dated 2020)
pIC50: −log10 of the molar value. Like-named read-outs stand apart in the source and are kept apart here.

Assays:
[1] = system: GDF8; experiment: AlphaScreen SureFire p-SMAD3 (Ser423/425) assay, GDF8-stimulated cells; assay type: cell-based; conditions: Mus musculus
From the text: (§1) The p-SMAD-3 (Ser423/425) SureFire® assay has been designed to measure the phosphorylation of endogenous cellular p-SMAD-3 (Ser423/425) in cell lysates and is a system for the screening of both modulators of receptor activation (e.g. agonists and antagonists) as well as agents acting intracellularly, such as small molecule inhibitors of upstream events. The assay will measure p-SMAD-3 (Ser423/425) activation by either cloned or endogenous receptors, and can be applied to primary cells.
(§2) 96-well Assay Protocol for 293FT and RMS13 adherent cells can be carried out manually or in high throughput with liquid handling robots.
(§3) The cells (80 μL of cells for 96 well plates) were plated in collagen coated tissue culture plates in RPMI or FreeStyle medium (Invitrogen) and incubated overnight. For manual analysis, 6 plates for GDF8, 6 plates for TGFβ, and optionally 6 plates for Alk5ca(ALK5 constitutively active) were used.
(§4) The compound dilution plates were prepared as follows: 12 μL of DMSO was transferred into first column of 96-well plate, and 16 μL of DMSO was transferred into columns 2-12 of the 96-well plate. 12 μL of compound solution was transferred into first column of the DMSO-containing 96-well plate. Three-fold dilution was performed up to column 10 of the DMSO-containing 96-well plate.
(§5) The plate containing cells were treated with compounds for about 10 minutes, and then ligand was added. GDF8 or TGFb was added to plates to stimulate. 293FL cells were stimulatedfor 90 minutes at 37° C.; and RMS13 cells were stimulated for 60 minutes at 37° C. The medium was then removed from the cells, and 1× Lysis Buffer (about 25 μL) was added and the plate was gently agitated on plate shaker for 5-10 minutes.
(§6) The lysate (5 μL) was then placed into 384-well shallow plates avoiding the generation of bubbles. To this, the Reaction Buffer+Activation Buffer+AlphaScreen® Acceptor beadsmixture (5 μL) was added. The plate was sealed with adhesive cover and shielded from light (e.g., with metal foil), and agitated gently on plate shaker for 2 hours at room temperature.
(§7) Dilution buffer+AlphaScreen® Donor beads (2 μL) was then added, and the plate was intubated on the plate shaker for an additional 1½ hours. After completion, the plate was read on Synergy-4 or Enspire plate reader, using AlphaScreen® pSMAD3® settings.
(§8) Representative results for inhibition of GDF8 (data=GDF pSMAD (MPC11) (μM)) and TGF-β (data=TGF-β pSMAD (MPC-11) (μM)) signaling are shown in Table 1(A=<0.05 μM, B=0.05−<0.1 μM, C=0.1−<1.0 μM, D=>1.0 μM): […]

[2] = system: TGF-β; experiment: AlphaScreen SureFire p-SMAD3 (Ser423/425) assay, TGF-β-stimulated cells; assay type: cell-based; conditions: Mus musculus
From the text: as §1, §2, §3, §4, §5, §6, §7, §8

[3] = MPC-11, p-SMAD3 (Ser423/425) AlphaScreen in cell lysate, MPC11, GDF8 stimulation, read-out: GDF8: inhibition of GDF8 signaling, GDF pSMAD (MPC11)
[4] = p-SMAD3 (Ser423/425) AlphaScreen in cell lysate, MPC-11, TGF-β stimulation, read-out: TGF-β: inhibition of TGF-β signaling, TGF-β pSMAD (MPC-11)

Structure (SMILES) | pIC50 [1, 3] | pIC50 [2, 4] | pIC50 ([1]; MPC-11, read-out: GDF8: inhibition of GDF8 signaling, GDF pSMAD (MPC11), p-SMAD3 (Ser423/425) AlphaScreen in cell lysate, GDF8 stimulation) | pIC50 ([2]; MPC-11, read-out: TGF-β: inhibition of TGF-β signaling, TGF-β pSMAD (MPC-11), p-SMAD3 (Ser423/425) AlphaScreen in cell lysate, TGF-β stimulation)
Cc1cc(-c2nc3n(c2-c2ccc4ncnn4c2)CCC3)cc(Cl)c1F [Compound 40, 6-(2-(3-chloro-4-fluoro-5-methylphenyl)-6,7-dihydro-5H-pyrrolo[1,2-c]imidazol-3-yl)-[1,2,4]triazolo[1,5-c]pyridine] | < 6.00 | < 6.00 | – | –
Cc1cc(-c2nc3n(c2-c2ccc4nccn4c2)CCC3)cc(C)c1F [Compound 43, 6-(2-(4-fluoro-3,5-dimethylphenyl)-6,7-dihydro-5H-pyrrolo[1,2-a]imidazol-3-yl)imidazo[1,2-c]pyridine] | < 6.00 | < 6.00 | – | –
Cc1c(-c2nc3n(c2-c2ccc4ncnn4c2)CCC3)ccc(F)c1F [Compound 44, 6-(2-(3,4-difluoro-2-methylphenyl)-6,7-dihydro-5H-pyrrolo[1,2-a]imidazol-3-yl)-[1,2,4]triazolo[1,5-a]pyridine] | 6.00 to 7.00 | < 6.00 | – | –
Cc1c(F)ccc(-c2nc3n(c2-c2ccc4ncnn4c2)CCC3)c1F [Compound 45, 6-(2-(2,4-difluoro-3-methylphenyl)-6,7-dihydro-5H-pyrrolo[1,2-a]imidazol-3-yl)-[1,2,4]triazolo[1,5-a]pyridine] | 6.00 to 7.00 | 6.00 to 7.00 | – | –
Cc1cc(F)c(-c2nc3n(c2-c2ccc4ncnn4c2)CCC3)cc1F [Compound 47, 6-(2-(2,5-difluoro-4-methylphenyl)-6,7-dihydro-5H-pyrrolo[1,2-a]imidazol-3-yl)-[1,2,4]triazolo[1,5-a]pyridine] | < 6.00 | < 6.00 | – | –
Cc1cc(F)c(-c2nc3n(c2-c2ccc4nccn4c2)CCC3)cc1F [Compound 48, 6-(2-(2,5-difluoro-4-methylphenyl)-6,7-dihydro-5H-pyrrolo[1,2-a]imidazol-3-yl)imidazo[1,2-c]pyridine] | < 6.00 | < 6.00 | – | –
Fc1cc(Cl)c(-c2nc3n(c2-c2ccc4ncnn4c2)CCC3)cc1F [Compound 49, 6-(2-(2-chloro-4,5-difluorophenyl)-6,7-dihydro-5H-pyrrolo[1,2-a]imidazol-3-yl)-[1,2,4]triazolo[1,5-a]pyridine] | 6.00 to 7.00 | 6.00 to 7.00 | – | –
NC(=O)c1cnc2ccc(-c3c(-c4ccc(F)c(Cl)c4)nc4n3CCC4)cn12 [Compound 51, 6-(2-(3-chloro-4-fluorophenyl)-6,7-dihydro-5H-pyrrolo[1,2-c]imidazol-3-yl)imidazo[1,2-c]pyridine-3-carboxamide] | > 7.30 | 7.00 to 7.30 | – | –
NC(=O)c1cnc2ccc(-c3c(-c4cc(F)c(F)c(F)c4)nc4n3CCC4)cn12 [Compound 53, 6-(2-(3,4,5-trifluorophenyl)-6,7-dihydro-5H-pyrrolo[1,2-a]imidazol-3-yl)imidazo[1,2-a]pyridine-3-carboxamide] | – | – | 7.00 to 7.30 | 7.00 to 7.30
Cc1cc(F)ccc1-c1nc2n(c1-c1ccc3nccn3c1)CCC2 [Compound 55, 6-(2-(4-fluoro-2-methylphenyl)-6,7-dihydro-5H-pyrrolo[1,2-a]imidazol-3-yl)imidazo[1,2-a]pyridine] | 6.00 to 7.00 | < 6.00 | – | –
Cc1cc(F)c(Cl)cc1-c1nc2n(c1-c1ccc3nccn3c1)CCC2 [Compound 57, 6-(2-(5-chloro-4-fluoro-2-methylphenyl)-6,7-dihydro-5H-pyrrolo[1,2-a]imidazol-3-yl)imidazo[1,2-a]pyridine] | 6.00 to 7.00 | 6.00 to 7.00 | – | –
Cc1ccc(F)cc1-c1nc2n(c1-c1ccc3ncnn3c1)CCC2 [Compound 58, 6-(2-(5-fluoro-2-methylphenyl)-6,7-dihydro-5H-pyrrolo[1,2-a]imidazol-3-yl)-[1,2,4]triazolo[1,5-a]pyridine] | < 6.00 | < 6.00 | – | –
Cc1ccc(F)cc1-c1nc2n(c1-c1ccc3nccn3c1)CCC2 [Compound 59, 6-(2-(5-fluoro-2-methylphenyl)-6,7-dihydro-5H-pyrrolo[1,2-a]imidazol-3-yl)imidazo[1,2-a]pyridine] | < 6.00 | < 6.00 | – | –

Now from value to molecule, other results behind:

pIC50 [1, 3] | pIC50 [2, 4] | Structure (SMILES) | pIC50 ([1]; MPC-11, read-out: GDF8: inhibition of GDF8 signaling, GDF pSMAD (MPC11), p-SMAD3 (Ser423/425) AlphaScreen in cell lysate, GDF8 stimulation) | pIC50 ([2]; MPC-11, read-out: TGF-β: inhibition of TGF-β signaling, TGF-β pSMAD (MPC-11), p-SMAD3 (Ser423/425) AlphaScreen in cell lysate, TGF-β stimulation)
< 6.00 | < 6.00 | Fc1cc(-c2nc3n(c2-c2ccc4nnc(C(F)(F)F)n4c2)CCC3)cc(F)c1F [Compound 33, 3-(trifluoromethyl)-6-(2-(3,4,5-trifluorophenyl)-6,7-dihydro-5H-pyrrolo[1,2-c]imidazol-3-yl)-[1,2,4]triazolo[4,3-c]pyridine] | – | –
< 6.00 | < 6.00 | Fc1cc(F)c(-c2nc3n(c2-c2ccc4nnc(C(F)(F)F)n4c2)CCC3)cc1F [Compound 34, 3-(trifluoromethyl)-6-(2-(2,4,5-trifluorophenyl)-6,7-dihydro-5H-pyrrolo[1,2-c]imidazol-3-yl)-[1,2,4]triazolo[4,3-c]pyridine] | – | –
< 6.00 | < 6.00 | Fc1ccc(-c2nc3n(c2-c2ccc4nnc(C(F)(F)F)n4c2)CCC3)c(F)c1F [Compound 35] | – | –
> 7.30 | 6.00 to 7.00 | Fc1ccc(-c2nc3n(c2-c2ccc4ncnn4c2)CCC3)cc1Cl [Compound 36, 6-(2-(3-chloro-4-fluorophenyl)-6,7-dihydro-5H-pyrrolo[1,2-a]imidazol-3-yl)-[1,2,4]triazolo[1,5-a]pyridine] | – | –
7.00 to 7.30 | 6.00 to 7.00 | Fc1ccc(-c2nc3n(c2-c2ccc4nccn4c2)CCC3)cc1Cl [Compound 37] | – | –
> 7.30 | > 7.30 | Cc1cc(-c2nc3n(c2-c2ccc4ncnn4c2)CCC3)c(F)cc1F [Compound 38, 6-(2-(2,4-difluoro-5-methylphenyl)-6,7-dihydro-5H-pyrrolo[1,2-a]imidazol-3-yl)-[1,2,4]triazolo[1,5-a]pyridine] | – | –
> 7.30 | 7.00 to 7.30 | Cc1cc(-c2nc3n(c2-c2ccc4nccn4c2)CCC3)c(F)cc1F [Compound 39, 6-(2-(2,4-difluoro-5-methylphenyl)-6,7-dihydro-5H-pyrrolo[1,2-a]imidazol-3-yl)imidazo[1,2-c]pyridine] | – | –
< 6.00 | < 6.00 | Cc1cc(-c2nc3n(c2-c2ccc4nccn4c2)CCC3)cc(Cl)c1F [Compound 41, 6-(2-(3-chloro-4-fluoro-5-methylphenyl)-6,7-dihydro-5H-pyrrolo[1,2-c]imidazol-3-yl)imidazo[1,2-c]pyridine] | – | –
< 6.00 | < 6.00 | Cc1cc(-c2nc3n(c2-c2ccc4ncnn4c2)CCC3)cc(C)c1F [Compound 42, 6-(2-(4-fluoro-3,5-dimethylphenyl)-6,7-dihydro-5H-pyrrolo[1,2-a]imidazol-3-yl)-[1,2,4]triazolo[1,5-a]pyridine] | – | –
6.00 to 7.00 | 6.00 to 7.00 | Cc1c(F)ccc(-c2nc3n(c2-c2ccc4nccn4c2)CCC3)c1F [Compound 46, 6-(2-(2,4-difluoro-3-methylphenyl)-6,7-dihydro-5H-pyrrolo[1,2-a]imidazol-3-yl)imidazo[1,2-a]pyridine] | – | –
7.00 to 7.30 | 6.00 to 7.00 | Fc1cc(Cl)c(-c2nc3n(c2-c2ccc4nccn4c2)CCC3)cc1F [Compound 50] | – | –
> 7.30 | 7.00 to 7.30 | Cc1cc(F)c(F)cc1-c1nc2n(c1-c1ccc3ncc(C(N)=O)n3c1)CCC2 [Compound 52, 6-(2-(4,5-difluoro-2-methylphenyl)-6,7-dihydro-5H-pyrrolo[1,2-a]imidazol-3-yl)imidazo[1,2-a]pyridine-3-carboxamide] | – | –
6.00 to 7.00 | < 6.00 | Cc1cc(F)ccc1-c1nc2n(c1-c1ccc3ncnn3c1)CCC2 [Compound 54, 6-(2-(4-fluoro-2-methylphenyl)-6,7-dihydro-5H-pyrrolo[1,2-a]imidazol-3-yl)-[1,2,4]triazolo[1,5-a]pyridine] | – | –
6.00 to 7.00 | 6.00 to 7.00 | Cc1cc(F)c(Cl)cc1-c1nc2n(c1-c1ccc3ncnn3c1)CCC2 [Compound 56, 6-(2-(5-chloro-4-fluoro-2-methylphenyl)-6,7-dihydro-5H-pyrrolo[1,2-a]imidazol-3-yl)-[1,2,4]triazolo[1,5-a]pyridine] | – | –
